Data as given in the NIST ThermoML archive (doi:10.1016/j.jct.2015.01.005).
± gives the expanded uncertainty stated by the source.

Assay: molar heat capacity at saturation pressure
Conditions: Crystal 2, Small (less than 1 g) adiabatic calorimetry

O[C@@H]1[C@@H](O)[C@@H]2OC[C@@H](O2)[C@H]1O [1,6-anhydro-β-D-glucopyranose]
Conditions	molar heat capacity [J/K/mol]
5.26 K	0.1543 ± 0.018
5.62 K	0.1754 ± 0.018
5.93 K	0.2008 ± 0.018
6.31 K	0.2396 ± 0.019
6.75 K	0.2955 ± 0.019
7.19 K	0.3641 ± 0.02
7.65 K	0.4465 ± 0.021
8.1 K	0.5445 ± 0.023
8.57 K	0.6608 ± 0.025
9.04 K	0.7922 ± 0.027
9.51 K	0.9407 ± 0.029
9.99 K	1.112 ± 0.031
10.53 K	1.33 ± 0.035
11.15 K	1.603 ± 0.038
11.77 K	1.9 ± 0.042
12.4 K	2.236 ± 0.047
13.05 K	2.607 ± 0.051
13.7 K	3.009 ± 0.056
14.35 K	3.44 ± 0.06
15.01 K	3.908 ± 0.064
15.78 K	4.473 ± 0.069
16.65 K	5.151 ± 0.074
17.53 K	5.868 ± 0.079
18.42 K	6.609 ± 0.082
19.31 K	7.372 ± 0.086
20.21 K	8.174 ± 0.091
21.39 K	9.247 ± 0.098
22.86 K	10.63 ± 0.11
24.35 K	12.04 ± 0.11
25.84 K	13.46 ± 0.12
27.08 K	14.64 ± 0.12
28.51 K	16.01 ± 0.13
30.04 K	17.43 ± 0.15
31.72 K	19.01 ± 0.16
33.56 K	20.71 ± 0.17
35.41 K	22.39 ± 0.18
37.27 K	24 ± 0.19
39.13 K	25.62 ± 0.19
41.1 K	27.29 ± 0.2
43.17 K	29.02 ± 0.21
45.24 K	30.72 ± 0.22
47.32 K	32.39 ± 0.23
49.4 K	34.01 ± 0.24
51.49 K	35.61 ± 0.24
53.58 K	37.22 ± 0.25
55.67 K	38.75 ± 0.26
57.78 K	40.27 ± 0.27
59.89 K	41.77 ± 0.28
62 K	43.24 ± 0.28
64.11 K	44.7 ± 0.29
66.22 K	46.15 ± 0.3
68.34 K	47.58 ± 0.31
70.46 K	49 ± 0.32
72.68 K	50.47 ± 0.32
75.01 K	51.98 ± 0.33
77.35 K	53.49 ± 0.33
78.72 K	54.4 ± 0.34
79.68 K	54.97 ± 0.34
80.68 K	55.63 ± 0.35
80.76 K	55.68 ± 0.35
82.03 K	56.47 ± 0.36
82.6 K	56.8 ± 0.36
82.68 K	56.86 ± 0.36
84.52 K	57.99 ± 0.36
84.6 K	58.06 ± 0.36
86.44 K	59.2 ± 0.37
86.52 K	59.23 ± 0.37
88.37 K	60.4 ± 0.37
88.45 K	60.45 ± 0.37
90.29 K	61.6 ± 0.4
90.37 K	61.65 ± 0.4
92.23 K	62.79 ± 0.41
92.3 K	62.82 ± 0.41
94.16 K	63.97 ± 0.41
94.23 K	64.01 ± 0.41
96.1 K	65.16 ± 0.42
96.17 K	65.21 ± 0.42
98.04 K	66.35 ± 0.43
98.11 K	66.41 ± 0.43
99.98 K	67.6 ± 0.43
100.05 K	67.69 ± 0.43
101.92 K	69.02 ± 0.44
101.99 K	69.12 ± 0.44
103.87 K	70.46 ± 0.44
103.93 K	70.5 ± 0.44
105.82 K	71.75 ± 0.45
105.88 K	71.76 ± 0.45
107.77 K	72.94 ± 0.45
107.83 K	72.96 ± 0.45
109.73 K	74.07 ± 0.46
109.79 K	74.13 ± 0.46
111.69 K	75.2 ± 0.46
111.75 K	75.25 ± 0.46
113.65 K	76.35 ± 0.47
113.71 K	76.37 ± 0.47
115.61 K	77.45 ± 0.48
115.67 K	77.49 ± 0.48
117.58 K	78.55 ± 0.48
117.64 K	78.6 ± 0.48
119.55 K	79.66 ± 0.49
119.61 K	79.69 ± 0.49
121.58 K	80.81 ± 0.49
123.55 K	81.91 ± 0.5
125.53 K	83.02 ± 0.5
127.51 K	84.1 ± 0.51
129.49 K	85.22 ± 0.51
131.47 K	86.32 ± 0.52
133.45 K	87.41 ± 0.52
135.44 K	88.53 ± 0.53
137.43 K	89.66 ± 0.53
139.41 K	90.74 ± 0.54
141.41 K	91.84 ± 0.55
143.4 K	92.95 ± 0.55
145.4 K	94.05 ± 0.56
147.39 K	95.15 ± 0.56
149.39 K	96.28 ± 0.57
151.39 K	97.39 ± 0.57
153.39 K	98.5 ± 0.57
155.4 K	99.63 ± 0.58
157.4 K	100.7 ± 0.6
159.41 K	101.8 ± 0.6
161.42 K	103 ± 0.6
163.43 K	104.1 ± 0.6
165.44 K	105.2 ± 0.6
167.46 K	106.4 ± 0.6
169.47 K	107.5 ± 0.6
171.49 K	108.6 ± 0.6
173.51 K	109.8 ± 0.6
175.53 K	110.9 ± 0.6
177.54 K	112 ± 0.6
179.56 K	113.2 ± 0.7
181.59 K	114.4 ± 0.7
183.61 K	115.5 ± 0.7
185.63 K	116.7 ± 0.7
187.66 K	117.8 ± 0.7
189.68 K	119 ± 0.7
191.71 K	120.2 ± 0.7
193.74 K	121.4 ± 0.7
195.77 K	122.5 ± 0.7
197.79 K	123.7 ± 0.7
199.82 K	124.9 ± 0.7
201.86 K	126.1 ± 0.7
203.89 K	127.3 ± 0.7
205.92 K	128.5 ± 0.7
207.96 K	129.7 ± 0.7
209.99 K	130.9 ± 0.7
212.02 K	132.1 ± 0.7
214.06 K	133.3 ± 0.7
216.09 K	134.5 ± 0.7
218.13 K	135.7 ± 0.7
220.17 K	137 ± 0.7
222.21 K	138.2 ± 0.8
224.25 K	139.4 ± 0.8
226.29 K	140.7 ± 0.8
228.33 K	141.9 ± 0.8
230.36 K	143.2 ± 0.8
232.4 K	144.5 ± 0.8
234.45 K	145.8 ± 0.8
236.49 K	147 ± 0.8
238.53 K	148.3 ± 0.8
240.57 K	149.6 ± 0.8
242.62 K	150.8 ± 0.8
244.66 K	152.1 ± 0.8
246.7 K	153.4 ± 0.8
248.74 K	154.7 ± 0.8
250.79 K	156.1 ± 0.8
252.83 K	157.3 ± 0.8
254.87 K	158.6 ± 0.8
256.92 K	160 ± 0.8
258.96 K	161.3 ± 0.8
260.23 K	162.2 ± 0.9
261.01 K	162.6 ± 0.9
262.15 K	163.5 ± 0.9
263.05 K	163.9 ± 0.9
264.2 K	164.7 ± 0.9
265.1 K	165.3 ± 0.9
266.25 K	166 ± 0.9
267.14 K	166.6 ± 0.9
268.29 K	167.4 ± 0.9
269.19 K	167.9 ± 0.9
270.34 K	168.8 ± 0.9
271.23 K	169.2 ± 0.9
272.38 K	170.1 ± 0.9
273.28 K	170.7 ± 0.9
274.43 K	171.3 ± 0.9
275.32 K	172 ± 0.9
276.48 K	172.8 ± 0.9
277.37 K	173.3 ± 0.9
278.52 K	174.2 ± 0.9
279.42 K	174.8 ± 0.9
280.57 K	175.4 ± 0.9
281.47 K	176.1 ± 0.9
282.61 K	176.8 ± 1
283.51 K	177.3 ± 1
284.66 K	178.2 ± 1
285.56 K	178.8 ± 1
286.7 K	179.6 ± 1
287.61 K	180.1 ± 1
288.75 K	180.9 ± 1
289.65 K	181.5 ± 1
290.79 K	182.4 ± 1
291.7 K	182.9 ± 1
292.84 K	183.6 ± 1
293.74 K	184.3 ± 1
294.88 K	185.1 ± 1
295.79 K	185.6 ± 1
296.92 K	186.3 ± 1
297.83 K	187 ± 1
298.97 K	187.9 ± 1
299.88 K	188.4 ± 1
301.01 K	189.4 ± 1
301.92 K	189.8 ± 1.1
303.05 K	190.6 ± 1.1
303.97 K	191.3 ± 1.1
305.1 K	192.1 ± 1.1
306.02 K	192.6 ± 1.1
307.14 K	193.5 ± 1.1
308.06 K	194.1 ± 1.1
309.19 K	195.1 ± 1.1
310.11 K	195.5 ± 1.1
311.24 K	196.5 ± 1.1
312.16 K	197 ± 1.1
313.28 K	197.9 ± 1.1
314.21 K	198.4 ± 1.1
315.33 K	199.3 ± 1.1
316.26 K	199.9 ± 1.1
317.38 K	200.9 ± 1.1
318.31 K	201.4 ± 1.1
319.43 K	202.3 ± 1.1
320.36 K	202.9 ± 1.1
321.48 K	203.7 ± 1.1
322.42 K	204.4 ± 1.1
323.53 K	205.4 ± 1.1
324.47 K	206 ± 1.1
325.58 K	206.9 ± 1.1
326.52 K	207.5 ± 1.1
327.64 K	208.4 ± 1.1
328.57 K	209.1 ± 1.1
329.69 K	210.1 ± 1.1
330.63 K	210.6 ± 1.1
331.74 K	211.7 ± 1.1
332.69 K	212.3 ± 1.1
333.8 K	213.3 ± 1.2
334.74 K	214 ± 1.2
335.85 K	215.1 ± 1.2
336.8 K	215.7 ± 1.2
337.91 K	216.8 ± 1.2
338.86 K	217.5 ± 1.2
339.97 K	218.6 ± 1.2
340.91 K	219.3 ± 1.2
342.02 K	220.5 ± 1.2
342.97 K	221.2 ± 1.2
344.08 K	222.5 ± 1.2
345.03 K	223.2 ± 1.2
346.14 K	224.6 ± 1.2
347.09 K	225.4 ± 1.2
348.19 K	226.9 ± 1.2
349.14 K	227.7 ± 1.2
350.25 K	229.3 ± 1.2
351.21 K	230.1 ± 1.2
352.31 K	231.9 ± 1.2
353.27 K	232.8 ± 1.2
354.37 K	234.7 ± 1.2
355.33 K	235.6 ± 1.2
356.43 K	237.6 ± 1.3
357.38 K	238.7 ± 1.3
358.48 K	240.7 ± 1.3
359.44 K	242.1 ± 1.3
360.54 K	244.1 ± 1.3
361.49 K	245.9 ± 1.3
362.59 K	248.2 ± 1.3
363.55 K	249.9 ± 1.3
364.64 K	252.8 ± 1.3
365.6 K	255.1 ± 1.3
366.69 K	258.7 ± 1.3
367.64 K	261.8 ± 1.3
368.73 K	265.9 ± 1.4
